Experimental data taken from patent US12441734B2, “Ferroptosis inhibitor and use therefor” (JICHI MEDICAL UNIVERSITY, priority 2021, dated 2025).

What was measured:
[1] = system: MELAS patient cells (ME169); experiment: Test III: suppression of BSO-induced ferroptosis, MELAS patient cells; assay type: cell-based, human; settings: 80 μM BSO coadded with test compound; FIG. 33
Description: (§1) Apomorphine and idebenone approved as a therapeutic drug for Leber's hereditary optic neuropathy in the Europe were used as control drugs.
(§2) In the drawing, A depicts the results obtained using compounds D8, D9, D10, D18, D20, D26, and D36, and B depicts the results obtained using compounds D37, D38, D39, D40, D41, D42, and D43. In the drawing, the abscissa depicts test compounds, and the ordinate depicts the cell viability (%) of each treated plot when the number of live cells in a control non-supplemented with BSO is defined as 100%.

[2] = system: Leigh syndrome patient cells (KCMC10); experiment: Test III: suppression of RSL-3-induced ferroptosis, Leigh syndrome patient cells; assay type: cell-based, human; settings: 100 nM RSL-3 coadded with test compound; FIG. 34
Description: as §1
(§3) In the drawing, A depicts the results obtained using compounds D8, D9, D10, D18, D20, D26, and D36, and B depicts the results obtained using compounds D37, D38, D39, D40, D41, D42, and D43. In the drawing, the abscissa depicts test compounds, and the ordinate depicts the cell viability (%) of each treated plot when the number of live cells in a control non-supplemented with RSL-3 is defined as 100%.

[3] = system: MELAS patient cells (ME169); experiment: Test III: suppression of RSL-3-induced ferroptosis, MELAS patient cells; assay type: cell-based, human; settings: 100 nM RSL-3 coadded with test compound; FIG. 35
Description: as §1, §3

[4] = system: human liver cancer cell line (Huh7); experiment: Test V: suppression of RSL-3-induced cell death in liver cancer cell system (LDH, MTT); assay type: cell-based; parameters: key to LDH (LDH activity, cell death): relative to control without RSL-3 (= 1); settings: Huh7, test compound 1 μM (GSK872 5 μM) 1 hour, then RSL-3 0.5 μM 24 hours, relative value, control non-supplemented with RSL-3 = 1; for viability at 1 µM: Homo sapiens, Huh-7, read-out: MTT (cell proliferation and cell viability)
Experimental: The ferroptosis inducer used was RSL-3.
At the stage where 70% confluency was attained, the medium was replaced with the medium for the test, and DMSO or each test compound (final concentration of GSK872: 5 μM, and final concentration of the other compounds: 1 μM) was added to the cells in each well, which were then cultured for 1 hour. Then, the ferroptosis inducer (final concentration: 0.5 μM) was added to the cells in each well, which were then cultured for 24 hours. After the completion of culture, cell death suppressive activity was measured with lactate dehydrogenase (LDH) activity as an index while cell proliferation and cell viability were measured with activity of reducing yellow tetrazolium salt (MTT) into formazan as an index.
The values in the table are relative values when the LDH activity and MTT value of a control non-supplemented with RSL-3 are each defined as 1.

[5] = target: dopamine D2 receptor (Homo sapiens (Human), UniProt P14416); experiment: Test IV: dopamine D2 receptor binding activity (GeneBLAzer D2-Gqo5-NEAT-bla CHO-K1 Cell-based Assay); settings: for Dopamine D2 receptor binding activity, Activity intensity: CHO-K1 reporter cells, 5 hours
Sequence of dopamine D2 receptor (P14416 whole entry): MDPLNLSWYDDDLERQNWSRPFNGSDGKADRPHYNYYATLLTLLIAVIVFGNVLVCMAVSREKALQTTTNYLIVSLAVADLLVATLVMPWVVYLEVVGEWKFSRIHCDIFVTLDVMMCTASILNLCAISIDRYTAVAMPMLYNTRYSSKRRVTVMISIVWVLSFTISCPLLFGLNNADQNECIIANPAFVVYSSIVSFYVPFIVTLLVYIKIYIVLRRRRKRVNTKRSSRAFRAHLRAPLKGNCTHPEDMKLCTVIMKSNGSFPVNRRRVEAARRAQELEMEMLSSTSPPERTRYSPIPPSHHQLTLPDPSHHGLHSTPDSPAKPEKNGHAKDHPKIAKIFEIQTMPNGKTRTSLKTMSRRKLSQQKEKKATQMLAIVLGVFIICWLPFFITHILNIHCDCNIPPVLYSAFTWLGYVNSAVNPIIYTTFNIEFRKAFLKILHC
Experimental: In this test, the dopamine D2 receptor binding activity of each test compound was measured using GeneBLAzer D2-Gqo5-NEAT-bla CHO-K1 Cell-based Assay (Thermo Fisher Scientific, Inc.). The CHO cells are designed such that a signal transduction pathway is activated by addition of a drug to express a reporter gene (P lactamase). […] Therefore, the binding activity of the test compound can be measured by measuring a blue fluorescence/green fluorescence ratio. The CHO cells were inoculated at 10,000 cells/well to a 384-well plate and cultured for 16 to 20 hours in a CO2 incubator. […] A substrate mix was added to the cells and incubated at room temperature for 2 hours. […] The respective EC50 values of the test compounds were determined from the measured fluorescence ratios using GraphPad Prism 8.

[6] = system: SH-SY5Y cells; experiment: Test VI: inhibition of rotenone-induced neuronal death (LDH assay); assay type: cell-based, human; parameters: key: ++: the case where a concentration-dependent inhibitory effect on rotenone-induced cell death was able to be confirmed twice; +: In the third test, the case where the concentration-dependent inhibitory effect was able to be confirmed; ±: the case where no concentration-dependent inhibitory effect was able to be confirmed; −: The case where any inhibitory effect on rotenone-induced cell death was able to be confirmed in none of the two tests; settings: rotenone 1 μM, compound 10 nM-10 μM (Apo 0.1 nM-10 μM), 48 hours
Experimental: After the completion of culture, rotenone-induced cell death was measured using Cytotoxicity LDH Assay Kit-WST (Dojindo Laboratories). […] The test was conducted twice, and the case where a concentration-dependent inhibitory effect on rotenone-induced cell death was able to be confirmed twice was rated as (++). If the inhibitory effect was confirmed in one of the two tests and no inhibitory effect was confirmed in the other test, the third test was conducted. In the third test, the case where the concentration-dependent inhibitory effect was able to be confirmed was rated as (+), and the case where no concentration-dependent inhibitory effect was able to be confirmed was rated as (±). The case where any inhibitory effect on rotenone-induced cell death was able to be confirmed in none of the two tests was rated as (−).

[7] = system: Leigh syndrome patient cells (KCMC10); experiment: Test III: suppression of BSO-induced ferroptosis, Leigh syndrome patient cells; assay type: cell-based, human; settings: for cell death ascribable to ferroptosis induced by BSO: 100 μM BSO coadded with test compound, FIG. 32; for EC50: Homo sapiens, read-out: EC50 (50% effective concentration of the suppressive effect on cell death ascribable to ferroptosis induced by BSO); for EC50 / ferroptosis inhibitory effect (judged from EC50 value): Leigh syndrome patient cells (KCMC10), BSO; for ferroptosis inhibitory effect (judged from EC50 value): Table 3
Description: as §1, §2

[8] = system: Leigh syndrome patient cells (LS^ND3); experiment: Test I: suppression of RSL-3-induced cell death, Leigh syndrome patient cells; assay type: cell-based, human; settings: 50 nM RSL-3 alone or coadded with inhibitor, 48 hours; FIG. 2B, 4B
Description: (§4) In the drawing, the abscissa depicts test compounds, and the ordinate depicts the cell viability (%) of each treated plot when the number of live cells in a control non-supplemented with RSL-3 is defined as 100%.
as §4

[9] = system: Leigh syndrome patient cells (LS^ND3); experiment: Test I: suppression of BSO-induced cell death, Leigh syndrome patient cells; assay type: cell-based, human; settings: 100 μM BSO alone or coadded with inhibitor (1 μM; GSK872 1-10 μM, v-VAD 1, 10 μM), 48 hours; FIG. 1B, 3B
Description: (§5) In the drawing, the abscissa depicts test compounds, and the ordinate depicts the cell viability (%) of each treated plot when the number of live cells in a control non-supplemented with BSO is defined as 100%.
as §5

| SMILES | cell death ascribable to ferroptosis induced by BSO [1] | cell death ascribable to ferroptosis induced by RSL-3 [2] | cell death ascribable to ferroptosis induced by RSL-3 [3] | viability at 1 µM [4] | LDH (LDH activity, cell death) [4] | dopamine D2 receptor binding activity (in words) [5] | Dopamine D2 receptor binding activity, Activity intensity [5] | Inhibitory effect on rotenone-induced cell death [6] | cell death ascribable to ferroptosis induced by BSO [7] | EC50 [7] | ferroptosis inhibitory effect (judged from EC50 value) [7] | cell death induced by RSL-3 (cell viability) [8] | cell death induced by BSO (cell viability) [9] |
| --- | --- | --- | --- | --- | --- | --- | --- | --- | --- | --- | --- | --- | --- |
| COc1ccc2c(c1OC)C[C@@H]1c3c(cc4c(c3-2)OCO4)CCN1C [D8] | markedly suppressed | suppressed | suppressed | 56% | 2.46 | no or little | − | ++ | markedly suppressed | 180 nM | particularly high |  |  |
| CN1CCc2cc3c(c4c2[C@H]1Cc1ccccc1-4)OCO3 [D18] | markedly suppressed | suppressed | suppressed |  |  | no or little | − |  | markedly suppressed | 492 nM |  |  |  |
| COc1cc2c(cc1OC)-c1c3c(c(OC)c4c1C(C2)N(C)CC4)OCO3 (centres unmarked) [D20] | markedly suppressed | suppressed | suppressed |  |  | no or little | − |  | markedly suppressed | 798 nM |  |  |  |
| COc1cc2c3c(c1O)-c1c(ccc(OC)c1OC)CC3N(C)CC2 (centres unmarked) [D26] | markedly suppressed | suppressed | suppressed | 58% | 4.85 | no or little | − | ± | markedly suppressed | 289 nM |  |  |  |
| CCCCOc1ccc2c(c1O)-c1cccc3c1[C@@H](C2)N(C)CC3.Cl [D36] | markedly suppressed | suppressed | suppressed | 81% | 0.91 | no or little | − | ++ | markedly suppressed | 123 nM | particularly high |  |  |
| CC(=O)N(O)CCCCCNC(=O)CCC(=O)N(O)CCCCCNC(=O)CCC(=O)N(O)CCCCCN [DFO, deferoxamine] |  |  |  |  |  |  |  |  |  |  |  | the same or similar results | suppressed |
| Clc1cccc(CN=C2Nc3ccccc3NC23CCNCC3)c1 [Lip-1, liproxstatin] |  |  |  |  |  |  |  |  |  |  |  | the same or similar results | suppressed |
